For this assay, the target named is T1, human GPR119 (Homo sapiens, UniProt Q8TDV5).
T1 construct: expression vector for human GPR119 cDNA (Acc. No. NP_848566); expressed in transfected cells
T1 sequence (Q8TDV5 1-335): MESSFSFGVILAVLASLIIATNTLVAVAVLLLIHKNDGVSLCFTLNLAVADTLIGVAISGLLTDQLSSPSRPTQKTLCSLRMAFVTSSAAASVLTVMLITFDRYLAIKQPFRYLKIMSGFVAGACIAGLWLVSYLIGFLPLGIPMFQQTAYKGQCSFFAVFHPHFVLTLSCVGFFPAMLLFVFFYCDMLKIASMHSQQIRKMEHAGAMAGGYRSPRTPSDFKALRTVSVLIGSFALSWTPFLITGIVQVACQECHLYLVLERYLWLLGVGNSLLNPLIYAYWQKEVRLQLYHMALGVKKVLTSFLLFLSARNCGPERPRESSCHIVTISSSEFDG
The assay can be described thus: AlphaScreen cAMP assay in MIN6 cells stably transfected with human GPR119. The class given is cell-based. The settings on record: Min-6/hGPR119 cells, 45 minutes incubation at room temperature. The method, then: The compounds of formula I according to the invention modulate the activity of the G-protein-coupled receptor GPR119. The effect of the compounds on the activation of GPR119 and on the stimulation of intracellular cAMP concentration is determined using the AlphaScreen cAMP Assay Kit (Cat.No.#6760625R) made by PerkinElmer.
MIN6 cells [Miyazaki J et al. Endocrinology. 1990 July; 127(1):126-32] are stably transfected with an expression vector for human GPR119 cDNA (Acc. No. NP_848566). Min-6/hGPR119 cells are cultured in DMEM, 10% FBS, 50 μM β-mercaptoethanol, 0.3 mg/mL Geniticin, 2 mM GlutaMAX at 37° C. 5% CO2. For the assay, the cells are seeded in Optiplates (white, 384-well, 160W-barcoded, TC, sterile with lid, Cat.No.#6007688 (Perkin Elmer); 10000 cells/well; 50 μl). The plates covered with lids are then incubated for 24 hours at 37° C./5% CO2. After the medium is aspirated from the wells completely, 10 μl of the test compound are added, the compounds are diluted using stimulating buffer (140 mM NaCl, 3.6 mM KCl, 0.5 mM NaH2PO4, 0.5 mM MgSO4, 1.5 mM CaCl2, 10 mM Hepes, 5 mM NaHCO3; pH 7.4. 0.5 mM IBMX and 0.1% BSA, the final DMSO concentration is 1%). After 45 minutes incubation at room temperature (approx. 20° C.), the cAMP concentrations are determined using the AlphaScreen cAMP Assay Kit (Cat.No.#6760625R from PerkinElmer).
Background: Bead proximity is the source of the signal in Alpha formats.

`CCOc1ccc(-c2ncc(C(=O)N(C3CC3)C3CCN(c4nc(-c5ccccc5)no4)CC3)cn2)cn1` [Example 7, 2-(6-Ethoxy-pyridin-3-yl)-pyrimidine-5-carboxylic acid cyclopropyl-[1-(3-phenyl[1,2,4]oxadiazol-5-yl)-piperidin-4-yl]amide]: the EC50 – broadly, the concentration at which the effect is half-maximal – came to 25 nM.

In turn, `CCc1noc(N2CCC(N(C(=O)c3cnc(-c4ccc(CC#N)cc4)nc3)C3CC3)CC2)n1` [Example 8, 2-(4-Cyanomethyl-phenyl)-pyrimidine-5-carboxylic acid cyclopropyl-[1-(3-ethyl-[1,2,4]oxadiazol-5-yl)-piperidin-4-yl]-amide] returned an EC50 of 36 nM.

In the case of `N#CCc1ccc(-c2ncc(C(=O)N(C3CC3)C3CCN(c4nc(-c5ccccc5)no4)CC3)cn2)cc1` [Example 9, 2-(4-Cyanomethyl-phenyl)-pyrimidine-5-carboxylic acid cyclopropyl-[1-(3-phenyl-[1,2,4]oxadiazol-5-yl)-piperidin-4-yl]-amide], the EC50 was determined as 19 nM.

Molecule `CCOc1ccc(-c2ncc(C(=O)N(C3CC3)C3CCN(c4nc(CC)no4)CC3)cn2)cn1` [Example 10, 2-(6-Ethoxy-pyridin-3-yl)-pyrimidine-5-carboxylic acid cyclopropyl-[1-(3-ethyl-[1,2,4]oxadiazol-5-yl)-piperidin-4-yl]-amide] had an EC50 of 101 nM.

Take `CCc1noc(N2CCC(N(C(=O)c3cnc(-c4ccc(C#N)c(F)c4)nc3)C3CC3)CC2)n1` [Example 11, 2-(4-Cyano-3-fluoro-phenyl)-pyrimidine-5-carboxylic acid cyclopropyl-[1-(3-ethyl-[1,2,4]oxadiazol-5-yl)-piperidin-4-yl]-amide]: the EC50 is 32 nM.

For `CCc1cnc(N2CCC(N(C(=O)c3cnc(-n4ccnc4)nc3)C3CC3)CC2)nc1` [Example 12, 2-Imidazol-1-yl-pyrimidine-5-carboxylic acid cyclopropyl-[1-(5-ethyl-pyrimidin-2-yl)-piperidin-4-yl]-amide], the EC50 stood at 35 nM.

Regarding `CCc1cnc(N2CCC(N(C(=O)c3cnc(-c4ccc(S(C)(=O)=O)cc4)nc3)C3CC3)CC2)nc1` [Example 13, 2-(4-Methanesulfonyl-phenyl)-pyrimidine-5-carboxylic acid cyclopropyl-[1-(5-ethyl-pyrimidin-2-yl)-piperidin-4-yl]-amide], the EC50 was 24 nM.

For the molecule `CCc1cnc(N2CCC(N(C(=O)c3cnc(-n4ccnc4C)nc3)C3CC3)CC2)nc1` [Example 14, 2-(2-Methyl-imidazol-1-yl)-pyrimidine-5-carboxylic acid cyclopropyl-[1-(5-ethyl-pyrimidin-2-yl)-piperidin-4-yl]-amide], the EC50 was found to be 21 nM.

As to `CCc1cnc(N2CCC(N(C(=O)c3cnc(-n4ccnc4CC)nc3)C3CC3)CC2)nc1` [Example 15, 2-(2-Ethyl-imidazol-1-yl)-pyrimidine-5-carboxylic acid cyclopropyl-[1-(5-ethyl-pyrimidin-2-yl)-piperidin-4-yl]-amide], it took 60 nM to reach a half-maximal effect (EC50).

Turning to `CCCc1noc(N2CCC(N(C(=O)c3cnc(-c4ccc(S(C)(=O)=O)cc4)nc3)C3CC3)CC2)n1` [Example 16, 2-(4-Methanesulfonyl-phenyl)-pyrimidine-5-carboxylic acid cyclopropyl-[1-(3-propyl-[1,2,4]oxadiazol-5-yl)-piperidin-4-yl]-amide], the EC50 is 159 nM.

Consider `CCc1cnc(N2CCC(N(C(=O)c3ccc(-n4ccnc4)nn3)C3CC3)CC2)nc1` [Example 17, 6-Imidazol-1-yl-pyridazine-3-carboxylic acid cyclopropyl-[1-(5-ethyl-pyrimidin-2-yl)-piperidin-4-yl]-amide], for which a half-maximal response (EC50) required 964 nM.

With `CCCc1noc(N2CCC(N(C(=O)c3noc(-c4ccc(C#N)cc4F)n3)C3CC3)CC2)n1` [Example 18, 5-(4-Cyano-2-fluoro-phenyl)-[1,2,4]oxadiazole-3-carboxylic acid cyclopropyl-[1-(3-propyl-[1,2,4]oxadiazol-5-yl)-piperidin-4-yl]-amide], the EC50 is 7 nM.

Molecule `Cc1cnc(N2CCC(N(C(=O)c3cnc(-n4ccnc4C)nc3)C3CC3)CC2)cn1` [Example 19, 2-(2-Methyl-imidazol-1-yl)-pyrimidine-5-carboxylic acid cyclopropyl-[1-(5-methyl-pyrazin-2-yl)-piperidin-4-yl]-amide] yielded an EC50 of 97 nM.

On to `CS(=O)(=O)c1ccc(-c2ncc(C(=O)N(C3CC3)C3CCN(c4noc(C5CC5)n4)CC3)cn2)cc1` [Example 20, 2-(4-Methanesulfonyl-phenyl)-pyrimidine-5-carboxylic acid cyclopropyl-[1-(5-cyclopropyl-[1,2,4]oxadiazol-3-yl)-piperidin-4-yl]-amide], for which the EC50 came to 92 nM.

Turning to `CCCc1noc(N2CCC(N(C(=O)c3cnc(-n4ccnc4)nc3)C3CC3)CC2)n1` [Example 21, 2-Imidazol-1-yl-pyrimidine-5-carboxylic acid cyclopropyl-[1-(3-propyl-[1,2,4]oxadiazol-5-yl)-piperidin-4-yl]-amide], it took 123 nM to reach a half-maximal effect (EC50).

As for `CCCc1noc(N2CCC(N(C(=O)c3cnc(-n4ccnc4C)nc3)C3CC3)CC2)n1` [Example 22, 2-(2-Methyl-imidazol-1-yl)-pyrimidine-5-carboxylic acid cyclopropyl-[1-(3-propyl-[1,2,4]oxadiazol-5-yl)-piperidin-4-yl]-amide], the EC50 amounted to 137 nM.

Molecule `CCCc1noc(N2CCC(N(C(=O)c3cnc(-n4ccnc4CC)nc3)C3CC3)CC2)n1` [Example 23, 2-(2-Ethyl-imidazol-1-yl)-pyrimidine-5-carboxylic acid cyclopropyl-[1-(3-propyl-[1,2,4]oxadiazol-5-yl)-piperidin-4-yl]-amide] gave an EC50 of 103 nM.

Consider `Cc1nccn1-c1ncc(C(=O)N(C2CC2)C2CCN(c3noc(C4CC4)n3)CC2)cn1` [Example 24, 2-(2-Methyl-imidazol-1-yl)-pyrimidine-5-carboxylic acid cyclopropyl-[1-(5-cyclopropyl-[1,2,4]oxadiazol-3-yl)-piperidin-4-yl]-amide], for which a half-maximal response (EC50) required 83 nM.

Take `O=C(c1cnc(-n2ccnc2)nc1)N(C1CC1)C1CCN(c2noc(C3CC3)n2)CC1` [Example 25, 2-Imidazol-1-yl-pyrimidine-5-carboxylic acid cyclopropyl-[1-(5-cyclopropyl-[1,2,4]oxadiazol-3-yl)-piperidin-4-yl]-amide]: the EC50 is 103 nM.

In turn, `CCc1nccn1-c1ncc(C(=O)N(C2CC2)C2CCN(c3noc(C4CC4)n3)CC2)cn1` [Example 26, 2-(2-Ethyl-imidazol-1-yl)-pyrimidine-5-carboxylic acid cyclopropyl-[1-(5-cyclopropyl-[1,2,4]oxadiazol-3-yl)-piperidin-4-yl]-amide] returned an EC50 of 156 nM.

The molecule `Cc1nccn1-c1ncc(C(=O)N(C2CC2)C2CCN(c3ncc(C(F)(F)F)cc3F)CC2)cn1` [Example 27, 2-(2-Methyl-imidazol-1-yl)-pyrimidine-5-carboxylic acid cyclopropyl-(3′-fluoro-5′-trifluoromethyl-3,4,5,6-tetrahydro-2H-[1,2′]bipyridinyl-4-yl)-amide] displayed an EC50 of 6 nM.

In the case of `CC(C)c1noc(N2CCC(N(C(=O)c3cc(-c4ccc(C#N)cc4F)no3)C3CC3)CC2)n1` [Example 28, 3-(4-Cyano-2-fluoro-phenyl)-isoxazole-5-carboxylic acid cyclopropyl-[1-(3-isopropyl-[1,2,4]oxadiazol-5-yl)-piperidin-4-yl]-amide], the EC50 was 3 nM.

Take `CC(C)c1noc(N2CCC(N(C(=O)c3cc(-c4ccc(C#N)cc4F)on3)C3CC3)CC2)n1` [Example 29, 5-(4-Cyano-2-fluoro-phenyl)-isoxazole-3-carboxylic acid cyclopropyl-[1-(3-isopropyl-[1,2,4]oxadiazol-5-yl)-piperidin-4-yl]-amide]: the EC50 came out at 3 nM.

For the molecule `CC(C)(C)c1noc(N2CCC(N(C(=O)c3cc(-c4ccc(C#N)cc4F)on3)C3CC3)CC2)n1` [Example 30, 5-(4-Cyano-2-fluoro-phenyl)-isoxazole-3-carboxylic acid [1-(3-tert-butyl-[1,2,4]oxadiazol-5-yl)-piperidin-4-yl]-cyclopropyl-amide], the EC50 stood at 5 nM.

In turn, `CC(C)(C)c1noc(N2CCC(N(C(=O)c3cc(-c4ccc(C#N)cc4F)no3)C3CC3)CC2)n1` [Example 31, 3-(4-Cyano-2-fluoro-phenyl)-isoxazole-5-carboxylic acid [1-(3-tert-butyl-[1,2,4]oxadiazol-5-yl)-piperidin-4-yl]-cyclopropyl-amide] came in with an EC50 of 6 nM.

The values are drawn from patent US8921398B2 (Boehringer Ingelheim International GmbH, priority 2011, dated 2014).
